Measurements: ChEMBL document CHEMBL1201862, “PubChem BioAssay data set” (2004)
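48-hour exposure; five concentrations; linearly interpolated endpoints. The concentration for 50% growth inhibition is given as GI50.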 Activity calls are given as the source filed them. Cut-off read from the data, not from the text of the source: active = GI50 up to about 1.1 µM and inactive = higher.

What was measured:
Assay in all cases: inhibition of tumour cell growth, NCI panel, 48 h
786-0 = system: 786-0
A498 = system: A498
A549 = system: A549
ACHN = system: ACHN
CAKI-1 = system: CAKI-1
COLO 205 = system: COLO 205
DLD-1 = system: DLD-1
DMS-114 = system: DMS-114
DMS-273 = system: DMS-273
EKVX = system: EKVX
HCT-116 = system: HCT-116
HCT-15 = system: HCT-15
HL-60 = system: HL-60
HOP-18 = system: HOP-18
HOP-62 = system: HOP-62
HT-29 = system: HT-29
IGROV-1 = system: IGROV-1
K562 = system: K562
KM-20L2 = system: KM-20L2
KM12 = system: KM12
LOX IMVI = system: LOX IMVI
LXFL 529 = system: LXFL 529
M14 = system: M14
M19-MEL = system: M19-MEL
MOLT-4 = system: MOLT-4
NCI-H226 = system: NCI-H226
NCI-H23 = system: NCI-H23
NCI-H460 = system: NCI-H460
NCI-H522 = system: NCI-H522
OVCAR-3 = system: OVCAR-3
OVCAR-4 = system: OVCAR-4
OVCAR-5 = system: OVCAR-5
OVCAR-8 = system: OVCAR-8
RPMI-8226 = system: RPMI-8226
RXF 631 = system: RXF 631
SF-268 = system: SF-268
SF-295 = system: SF-295
SF-539 = system: SF-539
SK-MEL-28 = system: SK-MEL-28
SK-MEL-2 = system: SK-MEL-2
SK-MEL-5 = system: SK-MEL-5
SK-OV-3 = system: SK-OV-3
SN12C = system: SN12C
SNB-19 = system: SNB-19
SNB-75 = system: SNB-75
SNB-78 = system: SNB-78
SR = system: SR
SW-620 = system: SW-620
TK-10 = system: TK-10
U-251 = system: U-251
UACC-257 = system: UACC-257
UACC-62 = system: UACC-62
UO-31 = system: UO-31
XF498 = system: XF498

Measured: GI50

CC(=O)n1cc(CC(C)O)c(=O)[nH]c1=O (centres undefined)
inactive: 786-0 > 100 µM | A498 > 100 µM | A549 > 100 µM | ACHN > 100 µM | CAKI-1 > 100 µM | COLO 205 > 100 µM | DLD-1 > 100 µM | DMS-114 > 100 µM | DMS-273 > 100 µM | EKVX > 100 µM | HCT-116 > 100 µM | HL-60 > 100 µM | HOP-18 > 100 µM | HOP-62 > 100 µM | HT-29 > 100 µM | IGROV-1 > 100 µM | K562 > 100 µM | KM-20L2 > 100 µM | KM12 > 100 µM | LOX IMVI > 100 µM | LXFL 529 > 100 µM | M14 > 100 µM | M19-MEL > 100 µM | MOLT-4 > 100 µM | NCI-H226 > 100 µM | NCI-H23 > 100 µM | NCI-H460 > 100 µM | NCI-H522 > 100 µM | OVCAR-3 > 100 µM | OVCAR-4 > 100 µM | OVCAR-5 > 100 µM | OVCAR-8 > 100 µM | RPMI-8226 > 100 µM | RXF 631 > 100 µM | SF-268 > 100 µM | SF-295 > 100 µM | SF-539 > 100 µM | SK-MEL-28 > 100 µM | SK-MEL-2 > 100 µM | SK-MEL-5 > 100 µM | SK-OV-3 > 100 µM | SN12C 17.1 µM | SNB-19 > 100 µM | SNB-75 > 100 µM | SNB-78 > 100 µM | SR > 100 µM | SW-620 > 100 µM | TK-10 > 100 µM | U-251 > 100 µM | UACC-257 > 100 µM | UACC-62 > 100 µM | UO-31 > 100 µM | XF498 > 100 µM
> 100 µM: HCT-15
